The text below walks through data of US20250241926A1, “HETEROCYCLIC COMPOUNDS FOR USE IN THE TREATMENT OF CANCER” (ARTIOS PHARMA LIMITED, priority 2021, published 2025).

The test has as its target T1, Human Polθ polymerase domain (aa1820-2590) (Homo sapiens, UniProt O75417).
T1 construct: Human Polθ polymerase domain (aa1820-2590) was expressed in E. Coli; made in house; host or cells: E. coli
T1 sequence (O75417 1820-2590): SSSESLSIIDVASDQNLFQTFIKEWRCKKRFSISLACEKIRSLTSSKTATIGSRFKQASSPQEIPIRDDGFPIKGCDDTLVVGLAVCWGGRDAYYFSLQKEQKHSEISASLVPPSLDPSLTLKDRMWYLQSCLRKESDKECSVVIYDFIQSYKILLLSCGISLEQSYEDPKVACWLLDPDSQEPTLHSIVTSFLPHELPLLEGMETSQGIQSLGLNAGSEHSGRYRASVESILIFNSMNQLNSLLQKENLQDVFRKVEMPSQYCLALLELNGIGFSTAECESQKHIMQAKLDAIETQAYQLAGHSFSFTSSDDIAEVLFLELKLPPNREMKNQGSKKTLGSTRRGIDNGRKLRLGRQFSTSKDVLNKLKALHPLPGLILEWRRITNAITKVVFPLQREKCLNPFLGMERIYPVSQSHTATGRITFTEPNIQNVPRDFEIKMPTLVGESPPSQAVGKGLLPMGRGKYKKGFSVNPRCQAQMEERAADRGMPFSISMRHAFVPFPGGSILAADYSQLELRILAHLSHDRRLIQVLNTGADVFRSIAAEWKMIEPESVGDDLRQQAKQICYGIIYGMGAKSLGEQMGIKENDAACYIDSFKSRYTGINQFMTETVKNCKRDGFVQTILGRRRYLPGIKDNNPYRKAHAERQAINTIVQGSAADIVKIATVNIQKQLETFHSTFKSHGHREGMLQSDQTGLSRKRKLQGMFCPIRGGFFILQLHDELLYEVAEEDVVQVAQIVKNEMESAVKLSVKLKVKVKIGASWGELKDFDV
Kind of test: Polθ Polymerase Domain Kinact/Kl Assay (PicoGreen). It is filed as biochemical. Conditions: covalent inhibitors, kobs vs [I] fit, 0.8 nM Polθ, 100 nM DNA substrate, read-out: Kinact/KI. The method, then:
Polθ Polymerase Domain Kinact/Kl Assay
A PicoGreen assay was used to measure the Kinact and Kl values of covalent compounds that inhibit the activity of Polθ in vitro.
Human Polθ polymerase domain (aa1820-2590) was expressed in E. Coli, purified, aliquoted and stored at −80° C. until required. Polθ substrate was generated from a 1.2:1 mix of DNA II Short to DNA II Long to give a final concentration of […] substrate in annealing buffer (20 mM Tris pH 7.5, 50 mM NaCl). The substrate was heated in 50 mL aliquots to 95° C. in a heating block for 5 min before the heating block switched off, the reaction left to cool to rt and stored at −20° C. until required.
Assay measurements were performed with 1× buffer comprising 25 mM Tris pH 7.5, 12.5 mM NaCl, […], 5% (v/v) glycerol, 0.01% v/v Triton x-100, 0.1 mg/ml BSA, 1 mM DTT. Test compounds were prepared by dilution in 100% DMSO to give a 12 μM intermediate stock of each (100× final top concentration). 100 nL of 23× 1:1.5-fold serial dilutions and a DMSO only control were dispensed using the Tecan dispenser into Greiner 384 well black low volume plates (product code 784076). DMSO concentration was maintained at 1% of the final assay volume by back filling with DMSO.
2× Working stock of substrate (200 nM of DNA substrate and […] dNTPs) and enzyme (1.4 nM Polθ) were made up in assay buffer. 5 μL/well of both enzyme and substrate 2× solutions were dispensed using a Tempest dispenser (Formulatrix) into assay plates that had been pre-dispensed with compound to give a final assay concentration of 100 nM DNA substrate, […] dNTPs and 0.8 nM Polθ. To stop the reaction, […] of a solution containing 25 mM Tris-HCl pH 7.5 and 20 mM EDTA was added at […] (t=0, 2.5, 5, 7.5, 10, 12.5, 15, 20, 25, 30, 35, 40, 45, 50, 55 and 60 min) using the Tempest's time delay function. The plates were covered during the time course to prevent evaporation. After completing the assay, 5 μL of detection reagent (25 mM Tris-HCl pH 7.5 and 2.5% (v/v) PicoGreen) was dispensed into the wells using a Tempest liquid handler (Formulatrix) and plates subsequently read on the CLARIOstar Plus (BMG Labtech) using the default optical settings for fluorescein and the auto gain/focus settings.
All data analysis was carried out using GraphPad Prism V. 8 (GraphPad Software Inc, San Diego, CA) Time course data for each inhibitor concentration was fitted to equation 1 to determine kobs values.^1 Any time points where the control (DMSO alone) reaction was no longer linear were excluded from the analysis.
A secondary plot of kobs vs [I] is used to determine the Kinact and Kl parameters (for a 2-step covalent inhibitor) by fitting to equation 2.1
[formula] • 1) Evaluation of Enzyme Inhibitors in Drug Discovery (Ch9), R. A Copeland, Wiley, 2nd Edition 2013.
As for `C=CC(=O)N1CC(N2CC(=O)N(C)C(CN3CC[C@H](Nc4nc(C)cc(C(F)(F)F)c4C#N)C(=O)N(C)c4cccc(F)c43)C2)C1` (single isomer, unassigned) [Example 58B], the kinact/KI came out at 40000 M⁻¹ s⁻¹. For the compound `C=CC(=O)N1CC(O[C@@H]2CN(CCN3CC[C@H](Nc4nc(C)cc(C(F)(F)F)c4C#N)C(=O)N(C)c4cccc(F)c43)C[C@H]2O)C1` (single isomer, unassigned) [Example 65B], the kinact/KI came to 550000 M⁻¹ s⁻¹. In the case of `C=CC(=O)N1CCN2CCN(CCN3CC[C@H](Nc4nc(C)cc(C(F)(F)F)c4C#N)C(=O)N(C)c4cccc(F)c43)CC2C1` (single isomer, unassigned) [Example 72A], the kinact/KI was 180000 M⁻¹ s⁻¹. For `Cc1cc(C(F)(F)F)c(C#N)c(N[C@H]2CCN(CCN3CCOC4(C3)CN(C(=O)/C=C/CN(C)C)C4)c3c(F)cccc3N(C)C2=O)n1` [Example 1, (S,E)-2-((6-(2-(2-(4-(Dimethylamino)but-2-enoyl)-5-oxa-2,8-diazaspiro[3.5]nonan-8-yl)ethyl)-7-fluoro-1-methyl-2-oxo-1,2,3,4,5,6-hexahydrobenzo[b][1,4]diazocin-3-yl)amino)-6-methyl-4-(trifluoromethyl)nicotinonitrile], the kinact/KI was 3.1e+06 M⁻¹ s⁻¹. In the case of `Cc1cc(C(F)(F)F)c(C#N)c(N[C@H]2CCN(CCN3CCOC4(CCN(C(=O)/C=C/CN(C)C)C4)C3)c3c(F)cccc3N(C)C2=O)n1` (stereo partly drawn) [Example 2, 2-(((S)-6-(2-(2-((E)-4-(Dimethylamino)but-2-enoyl)-6-oxa-2,9-diazaspiro[4.5]decan-9-yl)ethyl)-7-fluoro-1-methyl-2-oxo-1,2,3,4,5,6-hexahydrobenzo[b][1,4]diazocin-3-yl)amino)-6-methyl-4-(trifluoromethyl)nicotinonitrile], the kinact/KI is 510000 M⁻¹ s⁻¹. On to `Cc1cc(C(F)(F)F)c(C#N)c(N[C@H]2CCN(CCN3CCOC4(C3)CN(C(=O)/C=C/CN(C)C)C4)c3ccccc3N(C)C2=O)n1` [Example 3, (S,E)-2-((6-(2-(2-(4-(Dimethylamino)but-2-enoyl)-5-oxa-2,8-diazaspiro[3.5]nonan-8-yl)ethyl)-1-methyl-2-oxo-1,2,3,4,5,6-hexahydrobenzo[b][1,4]diazocin-3-yl)amino)-6-methyl-4-(trifluoromethyl)nicotinonitrile], for which the kinact/KI amounted to 1.1e+06 M⁻¹ s⁻¹. For the compound `Cc1cc(C(F)(F)F)c(C#N)c(N[C@H]2CCN(CCN3CC4(C3)CN(C(=O)/C=C/CN(C)C)C4)c3ccccc3N(C)C2=O)n1` [Example 4, (S,E)-2-((6-(2-(6-(4-(Dimethylamino)but-2-enoyl)-2,6-diazaspiro[3.3]heptan-2-yl)ethyl)-1-methyl-2-oxo-1,2,3,4,5,6-hexahydrobenzo[b][1,4]diazocin-3-yl)amino)-6-methyl-4-(trifluoromethyl)nicotinonitrile], the kinact/KI turned out to be 300000 M⁻¹ s⁻¹. Take `Cc1cc(C(F)(F)F)c(C#N)c(N[C@H]2CCN(CCN3CCN(C(=O)/C=C/CN(C)C)CC3)c3ccccc3N(C)C2=O)n1` [Example 5, (S,E)-2-((6-(2-(4-(4-(Dimethylamino)but-2-enoyl)piperazin-1-yl)ethyl)-1-methyl-2-oxo-1,2,3,4,5,6-hexahydrobenzo[b][1,4]diazocin-3-yl)amino)-6-methyl-4-(trifluoromethyl)nicotinonitrile]: the kinact/KI amounted to 110000 M⁻¹ s⁻¹. In the case of `C=CC(=O)N1CC2(CN(CCN3CC[C@H](Nc4nc(C)cc(C(F)(F)F)c4C#N)C(=O)N(C)c4cccc(F)c43)CCN2C)C1` [Example 6, (S)-2-((6-(2-(2-Acryloyl-5-methyl-2,5,8-triazaspiro[3.5]nonan-8-yl)ethyl)-7-fluoro-1-methyl-2-oxo-1,2,3,4,5,6-hexahydrobenzo[b][1,4]diazocin-3-yl)amino)-6-methyl-4-(trifluoromethyl)nicotinonitrile] it was 980000 M⁻¹ s⁻¹. As to `C=CC(=O)N1CC2(CN(CCN3CC[C@H](Nc4nc(C)cc(C(F)(F)F)c4C#N)C(=O)N(C)c4ccc(Cl)cc43)C2)C1` [Example 7, (S)-2-((6-(2-(6-Acryloyl-2,6-diazaspiro[3.3]heptan-2-yl)ethyl)-8-chloro-1-methyl-2-oxo-1,2,3,4,5,6-hexahydrobenzo[b][1,4]diazocin-3-yl)amino)-6-methyl-4-(trifluoromethyl)nicotinonitrile], the kinact/KI stood at 460000 M⁻¹ s⁻¹.

On to `C=CC(=O)N1CC2(CCN(CCN3CC[C@H](Nc4nc(C)cc(C(F)(F)F)c4C#N)C(=O)N(C)c4cccc(F)c43)CC2)C1` [Example 8, (S)-2-((6-(2-(2-Acryloyl-2,7-diazaspiro[3.5]nonan-7-yl)ethyl)-7-fluoro-1-methyl-2-oxo-1,2,3,4,5,6-hexahydrobenzo[b][1,4]diazocin-3-yl)amino)-6-methyl-4-(trifluorometh-yl)nicotinonitrile], for which the kinact/KI came to 490000 M⁻¹ s⁻¹. As for `C=CC(=O)N1CC2(CCCN(CCN3CC[C@H](Nc4nc(C)cc(C(F)(F)F)c4C#N)C(=O)N(C)c4cccc(F)c43)C2)C1` [Example 9, (S)-2-((6-(2-(2-Acryloyl-2,6-diazaspiro[3.5]nonan-6-yl)ethyl)-7-fluoro-1-methyl-2-oxo-1,2,3,4,5,6-hexahydrobenzo[b][1,4]diazocin-3-yl)amino)-6-methyl-4-(trifluorometh-yl)nicotinonitrile], the kinact/KI is 300000 M⁻¹ s⁻¹. `C=CC(=O)N1CC(OC2CCN(CCN3CC[C@H](Nc4nc(C)cc(C(F)(F)F)c4C#N)C(=O)N(C)c4cccc(F)c43)CC2)C1` [Example 13, (S)-2-((6-(2-(4-((1-Acrylo-ylazetidin-3-yl)oxy)piper-idin-1-yl)ethyl)-7-fluoro-1-methyl-2-oxo-1,2,3,4,5,6-hexahydrobenzo[b][1,4]diazocin-3-yl)amino)-6-methyl-4-(trifluorometh-yl)nicotinonitrile]: the kinact/KI is 320000 M⁻¹ s⁻¹. As to `C=CC(=O)N1CC(N2CCN(CCN3CC[C@H](Nc4nc(C)cc(C(F)(F)F)c4C#N)C(=O)N(C)c4cccc(F)c43)C[C@H]2C)C1` [Example 16, 2-(((S)-6-(2-((R)-4-(1-Acryloylazetidin-3-yl)-3-methylpiperazin-1-yl)-ethyl)-7-fluoro-1-methyl-2-oxo-1,2,3,4,5,6-hexa-hydrobenzo[b][1,4]diazocin-3-yl)amino)-6-methyl-4-(trifluorometh-yl)nicotinonitrile], the kinact/KI came to 540000 M⁻¹ s⁻¹. In the case of `C=CC(=O)N1CC(N2CCN(CCN3CC[C@H](Nc4nc(C)cc(C(F)(F)F)c4C#N)C(=O)N(C)c4cccc(F)c43)C[C@@H]2C)C1` [Example 17, 2-(((S)-6-(2-((S)-4-(1-Acryloylazetidin-3-yl)-3-methylpiperazin-1-yl)-ethyl)-7-fluoro-1-methyl-2-oxo-1,2,3,4,5,6-hexa-hydrobenzo[b][1,4]diazocin-3-yl)amino)-6-methyl-4-(trifluorometh-yl)nicotinonitrile], the kinact/KI worked out at 570000 M⁻¹ s⁻¹.
